Here are results for 22 molecules from ChEMBL document CHEMBL5233226 (Eur J Med Chem, 2020).

Experiment [1] addresses T1, Plasma kallikrein (Homo sapiens, UniProt P03952). Description: Inhibition of human plasma kallikrein usingPro-Phe-Arg-AMC as substrate incubated for 5 mins. The format is single protein.
Experiment [2] has as its target T1, Plasma kallikrein. Description: Inhibition of human plasma kallikrein using H-D-Pro-Phe-Arg-p-nitroaniline as substrate assessed as inhibition constant.
Experiment [3] concerns the target T1, Plasma kallikrein. Briefly: Inhibition of plasma kallikrein (unknown origin).
The target in experiment [4] is T2, Plasminogen (Homo sapiens, UniProt P00747). Briefly: Inhibition of plasmin (unknown origin).
T2 sequence (P00747 97-580 limits assumed): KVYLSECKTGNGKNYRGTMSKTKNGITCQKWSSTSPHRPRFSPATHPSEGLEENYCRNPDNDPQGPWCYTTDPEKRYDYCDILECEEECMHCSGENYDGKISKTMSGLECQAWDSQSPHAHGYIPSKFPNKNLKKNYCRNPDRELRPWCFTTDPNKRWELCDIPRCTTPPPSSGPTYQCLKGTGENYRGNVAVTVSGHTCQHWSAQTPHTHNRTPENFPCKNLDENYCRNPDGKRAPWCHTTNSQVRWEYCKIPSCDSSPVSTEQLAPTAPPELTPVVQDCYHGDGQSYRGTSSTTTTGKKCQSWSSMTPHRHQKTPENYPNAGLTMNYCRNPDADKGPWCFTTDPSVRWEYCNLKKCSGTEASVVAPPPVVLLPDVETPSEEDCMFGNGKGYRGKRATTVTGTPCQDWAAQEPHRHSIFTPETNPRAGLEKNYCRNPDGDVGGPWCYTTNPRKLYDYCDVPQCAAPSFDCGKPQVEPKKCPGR
T2 sequence (P00747 581-810 limits assumed): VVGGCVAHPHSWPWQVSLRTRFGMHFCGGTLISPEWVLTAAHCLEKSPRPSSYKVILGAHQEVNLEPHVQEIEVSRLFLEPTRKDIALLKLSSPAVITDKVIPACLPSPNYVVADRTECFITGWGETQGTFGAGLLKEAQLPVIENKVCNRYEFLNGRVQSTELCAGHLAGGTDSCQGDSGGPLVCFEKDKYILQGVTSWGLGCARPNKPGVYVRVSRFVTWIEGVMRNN
Experiment [5] has as its target T3, Coagulation factor XII (Homo sapiens, UniProt P00748).
T3 sequence (P00748 whole entry): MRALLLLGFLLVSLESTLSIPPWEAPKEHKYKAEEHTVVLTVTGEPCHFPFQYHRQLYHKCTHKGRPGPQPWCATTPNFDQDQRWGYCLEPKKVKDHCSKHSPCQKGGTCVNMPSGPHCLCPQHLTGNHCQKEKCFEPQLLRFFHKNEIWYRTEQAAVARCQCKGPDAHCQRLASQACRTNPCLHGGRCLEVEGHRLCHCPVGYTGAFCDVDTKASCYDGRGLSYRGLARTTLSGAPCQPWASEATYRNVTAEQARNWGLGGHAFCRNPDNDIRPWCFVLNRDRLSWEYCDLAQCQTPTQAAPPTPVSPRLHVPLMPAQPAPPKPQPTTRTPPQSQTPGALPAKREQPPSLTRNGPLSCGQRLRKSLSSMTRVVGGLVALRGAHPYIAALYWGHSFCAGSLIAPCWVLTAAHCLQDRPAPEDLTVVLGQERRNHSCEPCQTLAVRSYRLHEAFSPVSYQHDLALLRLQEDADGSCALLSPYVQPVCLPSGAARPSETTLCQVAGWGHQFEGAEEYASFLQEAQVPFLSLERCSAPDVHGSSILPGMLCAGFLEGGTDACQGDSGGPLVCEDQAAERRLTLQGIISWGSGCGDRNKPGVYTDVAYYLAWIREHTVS
Description: Inhibition of human fXIIa incubated for 1 hrs.

The target in experiment [6] is T1, Plasma kallikrein. Briefly: Inhibition of human plasma kallikrein incubated for 1 hrs.
For experiment [7], the target named is T1, Plasma kallikrein. Briefly: Inhibition of human plasma kallikrein using H-DPro-Phe-Arg-AFC as substrate.
In experiment [8] the target is T2, Plasminogen. Description: Inhibition of human plasmin using H-d-VLK-AM as substrate assessed as inhibition constant by fluorescence plate reader analysis.
Experiment [9] deals with T4, Coagulation factor XI (Homo sapiens, UniProt P03951). Briefly: Inhibition of human fXIa using Boc-FSR-AMC as substrate assessed as inhibition constant by fluorescence plate reader analysis.
T4 sequence (P03951 19-387 limits assumed): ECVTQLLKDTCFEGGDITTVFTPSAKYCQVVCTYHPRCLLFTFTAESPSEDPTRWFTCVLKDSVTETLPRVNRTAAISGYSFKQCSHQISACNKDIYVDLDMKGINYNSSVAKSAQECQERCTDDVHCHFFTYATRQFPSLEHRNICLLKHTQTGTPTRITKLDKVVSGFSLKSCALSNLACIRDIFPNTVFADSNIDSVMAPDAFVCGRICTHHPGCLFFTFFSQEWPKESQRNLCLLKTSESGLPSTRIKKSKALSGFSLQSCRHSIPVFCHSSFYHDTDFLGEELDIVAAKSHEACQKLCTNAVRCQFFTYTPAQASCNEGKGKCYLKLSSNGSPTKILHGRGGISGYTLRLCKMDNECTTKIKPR
T4 sequence (P03951 388-625 limits assumed): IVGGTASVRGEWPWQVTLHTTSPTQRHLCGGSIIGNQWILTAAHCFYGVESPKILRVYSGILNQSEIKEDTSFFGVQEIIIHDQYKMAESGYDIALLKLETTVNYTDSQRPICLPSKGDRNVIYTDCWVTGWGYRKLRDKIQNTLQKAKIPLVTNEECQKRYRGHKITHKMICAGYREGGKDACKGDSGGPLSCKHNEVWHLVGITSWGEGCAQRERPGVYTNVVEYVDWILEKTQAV
Experiment [10] has as its target Plasma kallikrein (Rattus norvegicus, UniProt P14272). Description: Inhibition of rat recombinant plasma kallikrein using Z-FR-AMC as substrate assessed as inhibition constant by fluorescence plate reader analysis.
Experiment [11] deals with T3, Coagulation factor XII. Briefly: Inhibition of human fXIIa using Z-GGR-AMC as substrate assessed as inhibition constant by fluorescence plate reader analysis.
In experiment [12] the target is T5, Prothrombin (Homo sapiens, UniProt P00734). Description: Inhibition of human thrombin using Z-GGR-AMC as substrate assessed as inhibition constant by fluorescence plate reader analysis.
The target in experiment [13] is T3, Coagulation factor XII. Description: Inhibition of human fXIIa using H-DPro-Phe-Arg-AFC as substrate.
The next experiment has as its target Kallikrein-1 (Homo sapiens, UniProt P06870). Description: Inhibition of KLK1 (unknown origin).
Experiment [14] addresses T4, Coagulation factor XI. Description: Inhibition of human fXIa using Z-Gly-Pro-Arg-AFC as substrate.
The target of experiment [15] is T5, Prothrombin. Briefly: Inhibition of human thrombin.
The target in experiment [16] is T2, Plasminogen. Briefly: Inhibition of human plasmin.
In another experiment the target is Trypsin (Homo sapiens, UniProt P07477+P07478+P35030). Description: Inhibition of human trypsin. Format: protein assay.

*1 amine or outer side, *2 acyl side, *3 side chain or, on linkers, in order; H or OH if unused. Where a SMILES comes first, the peptide text is derived from it. Bridges are numbered along the chain shown (N, C = ends). TBMB = c1c(C[*:1])cc(C[*:3])cc1C[*:2]

T1 sequence (P03952 20-390 limits assumed): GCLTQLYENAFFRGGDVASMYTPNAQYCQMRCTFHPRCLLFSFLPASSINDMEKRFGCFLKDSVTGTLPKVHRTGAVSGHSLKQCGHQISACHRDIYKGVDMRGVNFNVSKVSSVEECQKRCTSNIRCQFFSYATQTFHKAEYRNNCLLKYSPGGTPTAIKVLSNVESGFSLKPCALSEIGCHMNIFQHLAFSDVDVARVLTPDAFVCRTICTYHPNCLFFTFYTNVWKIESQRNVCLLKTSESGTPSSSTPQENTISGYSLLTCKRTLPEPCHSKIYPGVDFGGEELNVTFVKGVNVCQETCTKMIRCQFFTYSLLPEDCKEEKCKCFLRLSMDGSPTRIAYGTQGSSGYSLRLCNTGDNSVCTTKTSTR
T1 sequence (P03952 391-638 limits assumed): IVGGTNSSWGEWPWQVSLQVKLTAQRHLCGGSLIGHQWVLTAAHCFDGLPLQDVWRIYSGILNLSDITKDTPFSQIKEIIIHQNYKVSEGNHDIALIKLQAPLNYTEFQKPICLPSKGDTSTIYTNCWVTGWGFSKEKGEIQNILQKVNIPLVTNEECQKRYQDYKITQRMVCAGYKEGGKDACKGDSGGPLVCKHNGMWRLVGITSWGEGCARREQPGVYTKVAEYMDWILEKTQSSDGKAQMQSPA
Chain of Kallikrein-1 (P06870 whole entry): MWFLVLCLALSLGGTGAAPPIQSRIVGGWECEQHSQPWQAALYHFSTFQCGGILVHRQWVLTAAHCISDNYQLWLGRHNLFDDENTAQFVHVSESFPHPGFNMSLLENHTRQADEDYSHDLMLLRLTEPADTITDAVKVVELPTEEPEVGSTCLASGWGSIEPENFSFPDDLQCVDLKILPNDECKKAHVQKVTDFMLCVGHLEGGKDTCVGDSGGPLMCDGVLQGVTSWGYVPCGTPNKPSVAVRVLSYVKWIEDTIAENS
Chain of Plasma kallikrein (Rattus norvegicus, UniProt P14272) (P14272 20-390 limits assumed): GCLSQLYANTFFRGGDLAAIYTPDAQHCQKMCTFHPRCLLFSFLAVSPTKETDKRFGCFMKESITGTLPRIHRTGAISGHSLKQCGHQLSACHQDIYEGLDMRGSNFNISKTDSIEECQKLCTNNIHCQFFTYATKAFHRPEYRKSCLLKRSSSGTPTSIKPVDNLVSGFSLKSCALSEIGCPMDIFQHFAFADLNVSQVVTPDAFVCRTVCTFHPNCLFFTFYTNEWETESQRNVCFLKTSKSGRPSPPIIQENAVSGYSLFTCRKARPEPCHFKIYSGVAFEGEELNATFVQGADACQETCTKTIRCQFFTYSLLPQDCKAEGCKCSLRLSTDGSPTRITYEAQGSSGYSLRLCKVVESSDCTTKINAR
Chain of Plasma kallikrein (Rattus norvegicus, UniProt P14272) (P14272 391-638 limits assumed): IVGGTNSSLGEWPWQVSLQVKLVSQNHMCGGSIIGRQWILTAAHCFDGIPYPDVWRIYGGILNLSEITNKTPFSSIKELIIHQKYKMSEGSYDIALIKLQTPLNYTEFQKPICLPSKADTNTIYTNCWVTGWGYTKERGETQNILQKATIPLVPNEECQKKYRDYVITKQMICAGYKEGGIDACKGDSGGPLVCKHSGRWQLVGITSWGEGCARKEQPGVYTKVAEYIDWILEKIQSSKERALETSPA

Usually IC50 stands for the concentration at which inhibition is half-maximal. Turning to `Fc1c(CNc2ncnc3nc(Cc4ccc5ncc(Cl)cc5c4)[nH]c23)ccc2[nH]cc(Cl)c12`, on Plasma kallikrein [1], the half-inhibitory concentration (IC50) was < 100 nM.
`Nc1nccc2ccc(-n3nc(C(F)(F)F)cc3C(=O)Nc3cc(C(NCC4CC4)c4ccccc4)ccc3F)cc12` (configuration not stated): at Plasma kallikrein [2], the IC50 stood at 100 nM.
On to `CC(C)COC(=O)c1ccc(NC(=O)[C@H](CCCNC(=N)N)NC(=O)C2CCC(CN)CC2)cc1` (some centres not stated), for which the IC50 on Plasma kallikrein [3] came to 15000 nM; on Plasminogen [4], 370000 nM.
With `N=C(N)NCCCC[C@H](NC(=O)C1CCC(CN)CC1)C(=O)Nc1ccc(C(=O)O)cc1` (some centres not stated), the 50% inhibitory concentration (IC50) on Plasma kallikrein [3] was 14000 nM.
Regarding `Cc1nc(N)cc2c1CNC(=O)c1cnn(c1)Cc1ccc(Cn3cccn3)cc1OCCC/C=C\CCO2`, the figures for the IC50 against Coagulation factor XII [5] and on Plasma kallikrein [6] were 3600 nM and 2 nM, respectively.
Turning to `Clc1cnc2ccc(Cc3nc4ncnc(NCc5n[nH]c6ccc(Cl)cc56)c4[nH]3)cc2c1`, on Plasma kallikrein [1], the IC50 was < 100 nM.
As for `COCc1nn(Cc2ccc(Cn3cccn3)cc2)cc1C(=O)NCc1ccc2c(N)nccc2c1C`, at Plasma kallikrein [7], the IC50 stood at 0.56 nM.
As to `COC(=O)c1ccc(NC(=O)[C@H](CCCCN)NC(=O)C2CCC(CN)CC2)cc1` (some centres not stated), the concentration for half-maximal inhibition (IC50) is 50000 nM at Plasma kallikrein [3] and > 500000 nM at Plasminogen [4].
By Ki is commonly meant a measure of affinity in units of concentration, obtained from inhibition or displacement. Regarding `CC(N)C(=O)NC1CSCc2cc3cc(c2)CSCC(C(=O)NC(C)C(N)=O)NC(=O)C(CCCNC(=N)N)NC(=O)C(C(C)C)NC(=O)C(CC(N)=O)NC(=O)C(CSC3)NC(=O)C(C)NC(=O)C(CCCCN)NC(=O)C(Cc2ccccc2)NC1=O` (configuration not stated) (H-ACFKACNVRCA-NH2; linker 2-6-10 via TBMB; configuration not given here), the Ki on Plasminogen [8] was 5.2 nM; at Coagulation factor XI [9] it was > 50000 nM; on Plasma kallikrein [10] it was 27.2 nM; on Coagulation factor XII [11] it was > 50000 nM. Besides, on Prothrombin [12], the IC50 is > 50000 nM.
With `CS(=O)(=O)c1cc(Cc2cc(C(=O)NCc3cnc4[nH]cc(Cl)c4c3)ccn2)ccc1Cn1ccccc1=O`, on Plasma kallikrein [1], the IC50 was < 100 nM.
Consider `NCc1cccc(-n2nc(C(F)(F)F)cc2C(=O)Nc2cccc(C(OCC3CC3)c3ccccc3)c2)c1` (configuration not stated), for which, on Plasma kallikrein [2], the concentration for half-maximal inhibition (IC50) came to 100 nM and the inhibition constant (Ki) came out at 0.1 nM.
As for `NC(CCC1CC1)(c1ccc(F)c(NC(=O)[C@H]2C[C@@H](O)CN2C(=O)Nc2ccc(Cl)cc2)c1)c1ccccn1` (some centres not stated), the IC50 at Plasma kallikrein [2] is < 50 nM.
With `Cc1cc(N)nc(C)c1CNc1ncnc2nc(Cc3ccc4ncc(C(F)(F)F)cc4c3)[nH]c12`, on Plasma kallikrein [1], the IC50 is < 100 nM.
Take `CCCOC(c1ccccc1)c1cccc(NC(=O)c2cc(C(F)(F)F)nn2-c2cccc(CN)c2)c1` (configuration not stated): on Plasma kallikrein [2], the IC50 was > 50000 nM.
`Cc1cnn(Cc2ccc(Cn3cc(C(=O)NCc4cnc5[nH]cc(Cl)c5c4)c(C#N)n3)cc2)c1` came in with an IC50 against Plasma kallikrein [6] of 1 nM.
As for `COc1ccnc(CNC(=O)c2cn(Cc3ccc(Cn4ccccc4=O)cc3)nc2C(F)(F)F)c1F`, the half-maximal inhibitory concentration (IC50) against Coagulation factor XII [13] was > 4000 nM; against Kallikrein-1 it was > 4000 nM; against Coagulation factor XI [14], > 40000 nM; against Prothrombin [15], > 40000 nM; on Plasminogen [16] it was > 40000 nM; against Trypsin, > 40000 nM.
Consider `Fc1cc2[nH]cc(Cl)c2cc1CNc1ncnc2nc(Cc3ccc4ncc(Cl)cc4c3)[nH]c12`, for which, on Plasma kallikrein [1], the IC50 is < 100 nM.
`NC(CCC1CC1)(c1ccc(F)c(NC(=O)[C@H]2CC(F)(F)CN2C(=O)Nc2ccc(Cl)cn2)c1)c1ccccn1` (some centres not stated): the IC50 at Plasma kallikrein [2] was < 50 nM.
Still for that read-out and setting: the result for `NCc1cccc(-n2nc(C(F)(F)F)cc2C(=O)Nc2cccc(C(O)c3ccccc3)c2)c1` (configuration not stated) reads > 50000 nM.
Consider `NCc1cccc(-n2nc(C(N)=O)cc2C(=O)Nc2cc(C(NCC3CC3)c3ccccc3)ccc2F)c1` (configuration not stated), for which, at Plasma kallikrein [2], the IC50 came to 100 nM and the inhibitory constant (Ki) is 0.1 nM.
Turning to `CC(=O)c1ccc(NC(=O)C(CCCNC(=N)NS(=O)(=O)c2c(C)cc(C)cc2C)NC(=O)C2CCC(CN)CC2)cc1` (configuration not stated), the figures for the IC50 against Plasma kallikrein [3] and at Plasminogen [4] were 2000 nM and 42000 nM, respectively.
With `NCc1cccc(-n2nc(C(F)(F)F)cc2C(=O)Nc2cc(C(OCC3CC3)c3ccccc3O)ccc2F)c1` (configuration not stated), the 50% inhibitory concentration (IC50) at Plasma kallikrein [2] turned out to be 100 nM.
